According to patent US20220118057A1, “ALBUMIN NANOPARTICLES, THE MAKING METHOD, AND USES THEREOF” (NOVAGENESIS THERAPEUTIX (HK) LIMITED, priority 2019, published 2022):
One block for each compound: values may come before it.

Experiments:
[1] = Solubility and apparent drug concentration; assay type: physicochemical
[2] = tested on: porcine liver esterase (PLE); assay: Conversion of dC3 to β-lap at different BSA concentrations; assay type: in vitro ADME
Procedure: In order to study the effect of BSA on the conversion of dC3 to β-lap catalyzed by an esterase, dC3 was dissolved in DMSO (final DMSO concentration <0.5%), and then added dropwise to a solution of 1 M sodium salicylate, 1 U/mL porcine liver esterase (PLE) and different concentrations of BSA. The solution was shaken in a water bath at 60 rpm at 37° C. At predetermined time points (5, 10, 15, 30, 45, 60, 90, and 120 minutes), each 0.5 mL of release medium were taken out and replaced with an equal volume of fresh medium. The removed release medium was mixed with 0.5 mL of acetonitrile, and centrifuged for 10 minutes at 10,000 rpm to remove denatured proteins. The concentration of β-lap was analyzed by H PLC.
In order to study whether the effect of BSA on dC3-β-lap conversion catalyzed by an esterase will change in the presence of the polymer, the above-mentioned experiments were also conducted with the amount of PEG5K-β-PLA5K proportional to micelle preparation. Other conditions remained unchanged.

[3] = tested on: MIA PaCa-2 control; assay: In vitro cytotoxicity, MTS assay; assay type: cell-based, human; conditions: PLE 1 U/mL; slightly higher than β-lap
From the text: KRAS mutant cells MIA PaCa-2 (KRAS^G12C) and KRAS wild-type (KRAS^WT) BxPC-3 were selected for experiments. The expression levels of mutant KRAS in MIA PaCa-2 and BxPC-3 cells were manipulated. According to the supplier's protocol, MIA PaCa-2 cells with low expression level of KRAS were realized by lentiviral-mediated construction and transfection of pCDH-KRas-shRNA; control MIA PaCa-2 cells were realized by lentiviral-mediated transfection of pCDH vector; BxPC-3 cells with high expression level of KRAS were realized by lentiviral-mediated construction and transfection of pCDH-KRas-G12V, and control BxPC-3 cells were realized by lentiviral-mediated transfection of pCDH vector. All plasmids were purchased from […] Addgene (USA). The plasmid was transfected into the cells using transfection reagents (Promega, USA). 1 μg/mL puromycin was added to the culture medium for 48 hours to select stable transfected cell lines. Cells were represented as MIA PaCa-2 control, MIA PaCa-2 KRAS KD, BxPC-3 control and BxPC-3 KRAS^G12V.
Briefly, four pancreatic cancer cell lines were firstly inoculated into a 96-well culture plate (4000 cells/well), each well containing 0.1 mL of cell culture medium. […] The mean value of 6 wells per treatment was calculated and the treatment/control (T/C) value was calculated as a percentage of cell survival rate. […]

[4] = Pharmacokinetics of dC3 and β-lap after intravenous injection; assay type: in vivo, Sprague Dawley rats; conditions: Sprague Dawley, rat, plasma, 50 mg/kg (β-lap equivalent dose), β-lap once converted from dC3, read-out: pharmacokinetic half-life
Procedure: The comparison of pharmacokinetics of different preparations in Sprague Dawley rats (n=3 per group) was performed. […] The blood samples were centrifuged at 4° C. and 1000 rpm for 3 minutes. The plasma concentrations of β-lap and dC3 were analyzed by LC-MS/MS (AB Sciex QTRAP 5500, USA).

[5] = tested on: SW1990 (KRAS^G12D); assay: In vitro cytotoxicity, MTS assay; assay type: cell-based
Procedure: (§1) Briefly, four pancreatic cancer cell lines were firstly inoculated into a 96-well culture plate (4000 cells/well), each well containing 0.1 mL of cell culture medium. […] PLE (1 U/mL) was added concurrently with the dC3 preparation. The cells were further incubated for 12 hours, then the culture medium containing drugs was removed and new culture medium without drug was added. Relative survival curves of the four pancreatic cancer cell lines were obtained using the MTS assay (Promega, USA). The mean value of 6 wells per treatment was calculated and the treatment/control (T/C) value was calculated as a percentage of cell survival rate. All calculations were performed by GraphPad Prism 7 software (GraphPad Software, USA).
(§2) The relative survival profiles of pancreatic cancer cells SW1990 (KRAS^G12D) and SW1990/GEM (KRAS^G12D) were also measured using the same method. SW1990/GEM was cultured in a culture medium with 50 μM gemcitabine to maintain drug resistance.

[6] = tested on: SW1990/GEM (KRAS^G12D); assay: In vitro cytotoxicity, MTS assay; assay type: cell-based
Procedure: as §1, §2

[7] = tested on: BxPC-3 KRAS^G12V; assay: BSA macropinocytosis (6-TAMRA-BSA uptake), flow cytometry and confocal microscopy; assay type: cell-based, human; conditions: 75 μM EIPA pretreatment 30 minutes
Procedure: (§3) 4 pancreatic cancer cell lines, MIA PaCa-2 control, MIA PaCa-2 KRAS KD, BxPC-3 control and BxPC-3 KRAS^G12V (10^5 cells per well, 1 mL) were inoculated in a 12-well microplate (Corning, N.Y., USA) and incubated at 37° C. and 5% CO2. When the cell density reached approximately 65%, the cell culture medium was replaced with a serum-free culture medium. After 12 hours, the culture medium was removed again and replaced with DMEM containing 1 mg/mL 6-TAMRA-BSA (500 μL/well). After incubated for another 4 hours, the cells were washed, digested and suspended in PBS (400 μL) and subjected to fluorescence analysis on a flow cytometer (BD, FACS Calibur, USA) using a 544 nm laser excitation and a 575 nm emission filter. Based on forward scattering and side scattering analysis, viable cells (10,000 cells/sample) were counted to detect the fluorescence intensity of the cells. For the EIPA (a known macropinocytosis inhibitor) inhibition experiment, cells were incubated with serum-free culture medium for 12 hours, pretreated with 75 μM of EIPA for 30 minutes, then replaced with fresh DMEM containing 1 mg/ml 6-TAMRA-BSA was added (500 μL/well).
(§4) Cells were cultured and treated as described above and grown on coverslips. After cell nuclei were stained with DAPI, the cells grown on the coverslips were observed under a multiphoton confocal Ti-E A1RMP inverted microscope (Nikon, Japan).

[8] = tested on: BxPC-3 control; assay: as above; assay type: cell-based, human; conditions: 75 μM EIPA pretreatment 30 minutes
Procedure: as §3, §4

[9] = tested on: MIA PaCa-2 KRAS KD; assay: as above; assay type: cell-based, human; conditions: 75 μM EIPA pretreatment 30 minutes
Procedure: as §3, §4

[10] = tested on: MIA PaCa-2 control; assay: as above; assay type: cell-based, human; conditions: 75 μM EIPA pretreatment 30 minutes
Procedure: as §3, §4

solubility [1]: < 0.1 µg/mL | dC3-β-lap conversion ratio ([2]; BSA introduced at a low BSA-dC3 ratio, PLE): significantly reduced | dC3-β-lap conversion ([2]; BSA plus small amount of PEG-b-PLA proportional to micelle preparation): accelerated
Compound: CCC(=O)Oc1c2c(c3ccccc3c1OC(=O)CC)OC(C)(C)CC2 [dC3]
IC50 values, compared among dC3 treatments [3]: comparable

Compound: CC1(C)CCC2=C(O1)c1ccccc1C(=O)C2=O [β-lap, β-lapachone]
half-life [4]: ~24 min | inhibition of cells [5]: effectively inhibit | inhibition of cells [6]: effectively inhibit

effect on BSA uptake [9]: almost had no effect
Compound: CCN(c1nc(N)c(C(=O)N=C(N)N)nc1Cl)C(C)C [EIPA, 5-[N-ethyl-N-isopropyl] amiloride]
effect on 6-TAMRA-BSA uptake (macropinocytosis) [7]: can be inhibited | effect on BSA uptake [8]: almost had no effect | effect on 6-TAMRA-BSA uptake (macropinocytosis) [10]: can be inhibited
